Columns and labels:
Akt = assay: Insulin-stimulated phosphorylation of Akt in L6 myotubes exposed to high FA; assay type: cell-based, rat; conditions: 24 h exposure to high FA
Protocol: The model predicts that the development of insulin resistance requires FA uptake into muscle mitochondria and subsequent β-oxidation. To test this model, signaling experiments were performed in which mitochondrial FA metabolism was inhibited by carnitine deficiency or etomoxir.

L6 myocytes = assay: Acylcarnitine and ketone accumulation in L6 myocytes exposed to high FA; assay type: cell-based, rat; conditions: co-administration
Protocol: Cell culture. Early passages of rat L6 myoblasts (ATCC CRL-1458) from the American Tissue Culture Collection (Rockville, Md.) were grown in Dulbecco's Modified Eagle Medium (DMEM) with 10% Fetal Bovine Serum, 4.0 mM glutamine, and […] gentamycin, in a humidified incubator at 37° C., 5% CO2. Myoblasts were grown on 100 mm dishes to 50-60% confluence and then subcultured onto 6 and 24-well collagen-coated plates for experiments. When cells were 70% confluent, they were induced to differentiate into myotubes by changing to low-serum DFM (DMEM, 2% horse-serum, 4.0 mM glutamine, […] gentamycin). […]
Substrate Metabolism. […] Briefly, the production of [^14C]-labeled [^14C]CO2 (complete oxidation) was measured and where appropriate, [^14C]-labeled ASM, a measure of TCA cycle intermediates and acylcarnitine esters and ketones (incomplete oxidation) was measured, using a modified 48-well microtiter plate (Kim, et al. (2002) Am. J. Physiol. Endocrinol. Metab. 282:E1014-El022). […] Radioactivity was determined by scintillation counting. […] Rates of ketone production were determined by treating media and tissue lysates with sodium borodeuteride, thereby producing ketoacids labeled with deuterium. Trimethylsilyated extracts spiked with internal standards were analyzed by GC/MS, permitting determination of βHB and AcAc in a single analysis. […]

Structure (SMILES) | Lipid-induced insulin resistance (insulin-stimulated phosphorylation of Akt) (Akt) | Accumulation of lipid metabolites (acylcarnitines, βHB-carnitine, free ketones, C2) (L6 myocytes)
C[N+](C)(C)CC(O)CC(=O)[O-] (stereo not drawn) [carnitine] | exacerbated lipid-induced insulin resistance in a dose-dependent manner | –
CCOC(=O)[C@@]1(CCCCCCOc2ccc(Cl)cc2)CO1 [etomoxir] | at least partly protected | prevented

Reference: patent US20070110716A1, “Relationship of a specific metabolite to insulin resistance” (priority 2003, published 2007)
